Where a SMILES comes first, the peptide text is derived from it. [ ]: non-standard residue; d: D form. The star is where a group is joined. Methylprednisolone(17-OCOEt) = CCC(=O)O[C@]1(C(=O)CO*)CC[C@H]2[C@@H]3C[C@H](C)C4=CC(=O)C=C[C@]4(C)[C@H]3[C@@H](O)C[C@@]21C; X2 = C[C@@H]1C[C@H]2[C@@H]3C[C@H](F)C4=CC(=O)C=C[C@]4(C)[C@H]3[C@@H](O)C[C@]2(C)[C@H]1C(=O)CO*; X1 = C[C@H]1C[C@@H]2[C@H]([C@@H](O)C[C@@]3(C)[C@H]2CC[C@]3(O)C(=O)CO*)[C@@]2(C)C=CC(=O)C=C12; Phthalimidoacetyl = O=C1c2ccccc2C(=O)N1CC(=O)*; Fmoc = O=C(OCC1c2ccccc2-c2ccccc21)*; MeOSuc = COC(=O)CCC(=O)*; Cbz = O=C(OCc1ccccc1)*; Boc = CC(C)(C)OC(=O)*; Aib = CC(C)(N)C(=O)O; CH2Cl = ClC*
Assays:
rat ear = experiment: Local antiinflammatory action: modified rat ear test according to Tonelli (croton oil); assay type: in vivo; details: topical, * = significant (p < 0.05); for Edema [% inhibition]: ear weight, 16 hours after irritant; for Infiltration [% inhibition]: granulocytic infiltrate (myeloperoxidase and leukocyte-elastase), 16 hours
Description: The antiinflammatory activity of the corticoid-21-oligopeptide esters is performed in a modified rat ear test according to Tonelli. The modifications are based on changes of irritant solution (4% croton oil, 10% DMSO in ethanol), the type of administration (application of the solution with pipette) and the evaluation of the test 16 hours after administration of the irritant solution. At this time, both the inhibition of the edema by measuring the ear weight and the inhibition of the granulocytic infiltrate by measuring the granulocyte marker myeloperoxidase and leukocyte-elastase in the ear homogenate can be determined. The group size was 6 animals in each case.

Esterases of Rat Skin = experiment: Cleavage in the Homogenate of Normal Rat Skin (unspecific cleavage by esterases of rat skin); assay type: in vitro ADME; details: percent of hydrolysis rate of 6α-methylprednisolone-17-propionate-21-acetate; approximately 100 μmol/l, pH=7.4, 37° C.
Description: (§1) The homogenate of the skin of male rats (0.1 mol/l of phosphate buffer, pH=7.4) is centrifuged for 20 minutes at 10,000 g. The supernatant is adjusted in phosphate buffer to a protein concentration of 3 mg/ml. The test substances in 20 μl of ethanol are added to 1 ml of this homogenate. The final concentration of the corticoid derivatives is approximately 100 μmol/l. The incubation takes place for different periods at 37° C. At the end of incubation, the samples are extracted three times with 3 ml of chloroform. The combined extracts are evaporated to dryness under nitrogen and taken up with 100 μl of ethanol. The ethanolic solutions are mixed with the same volume of water and the saponification products are separated by HPLC (RP 18, acetonitrile/water-gradient, detection 240 nm). The relative hydrolysis rate is indicated in percent of the hydrolysis rate of the 6α-methylprednisolone-17-propionate-21-acetate.

Leukocyte Elastase = target: T1, Leukocyte Elastase (Homo sapiens, UniProt P08246); experiment: Cleavage of Glucocorticoid-21-Oligopeptide Esters by Leukocyte Elastase in the lysate of human neutrophilic granulocytes; assay type: biochemical; details: for Relative Hydrolysis Rate [%]: lysate of human neutrophilic granulocytes, 10^6 cells per ml, 1 hour at 37° C., Fmoc-Ala-Ala-Pro-Val-O-MPP is used as reference
T1 construct: also pure human sputum elastase (Elastin Products)
T1 sequence (P08246 30-267): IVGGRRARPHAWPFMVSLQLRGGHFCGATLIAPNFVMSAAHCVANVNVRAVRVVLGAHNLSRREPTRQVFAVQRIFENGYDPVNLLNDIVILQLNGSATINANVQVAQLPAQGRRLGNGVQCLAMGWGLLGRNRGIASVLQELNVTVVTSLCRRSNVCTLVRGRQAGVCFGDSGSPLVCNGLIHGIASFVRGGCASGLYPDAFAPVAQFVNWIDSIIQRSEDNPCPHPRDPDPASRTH
Description: as §1
Polymorphonuclear granulocytes are isolated from donor blood. The cells are lysed in a density of 10^6 cells per ml. 1 ml each of the lysate is mixed with 20 μl of ethanolic corticoid solution (5 mmol/l) After 1 hour of incubation at 37° C., the samples are extracted three times with 3 ml of chloroform and worked up as described above for HPLC analysis. The cleavage of the prodrugs according to the invention can be inhibited under these test conditions by the addition of the specific elastase inhibitor MeO-succinyl-Ala-Ala-Pro-Val-chloromethylketone to 90%. Furthermore, the compounds are also hydrolyzed by pure human sputum-elastase (elastin products).

[1] = concentration 0.003 (unit not given)
[2] = concentration 0.03 (unit not given)
[3] = concentration 0.3 (unit not given)

CCC(=O)O[C@]1(C(=O)COC(C)=O)CC[C@H]2[C@@H]3C[C@H](C)C4=CC(=O)C=C[C@]4(C)[C@H]3[C@@H](O)C[C@@]21C [6α-methylprednisolone-17-propionate-21-acetate, reference compound]
Edema [% inhibition] (rat ear; [1]): 44% | Infiltration [% inhibition] (rat ear; [1]): 12% | Edema [% inhibition] (rat ear; [2]): 62% | Infiltration [% inhibition] (rat ear; [2]): 45% | Edema [% inhibition] (rat ear; [3]): 67% | Infiltration [% inhibition] (rat ear; [3]): 78% | Relative Hydrolysis Rate [%] (Esterases of Rat Skin): 100%

CCC(=O)O[C@]1(C(=O)COC(=O)[C@@H](NC(=O)[C@@H]2CCCN2C(=O)[C@H](C)NC(=O)[C@H](C)NC(=O)OC(C)(C)C)C(C)C)CC[C@H]2[C@@H]3C[C@H](C)C4=CC(=O)C=C[C@]4(C)[C@H]3[C@@H](O)C[C@@]21C [Example 3, N-(N-(N-(N-(1,1-Dimethylethoxycarbonyl)-L-alanyl)-L-alanyl)-L -prolyl)-L-valine [11β,21-dihydroxy-3,20-dioxo-6α-methyl-17-propionyloxy-pregna-1,4-dien-21-yl] ester] (Boc-AAPV-{Methylprednisolone(17-OCOEt)})
Relative Hydrolysis Rate [%] (Leukocyte Elastase): 160-190% | Edema [% inhibition] (rat ear; [1]): 17% | Infiltration [% inhibition] (rat ear; [1]): 11% | Edema [% inhibition] (rat ear; [2]): 51% | Infiltration [% inhibition] (rat ear; [2]): 43% | Edema [% inhibition] (rat ear; [3]): 81% | Infiltration [% inhibition] (rat ear; [3]): 77% | Relative Hydrolysis Rate [%] (Esterases of Rat Skin): 50%

CCC(=O)O[C@]1(C(=O)COC(=O)[C@@H](NC(=O)[C@@H]2CCCN2C(=O)[C@H](C)NC(=O)[C@H](C)NC(=O)OCC2c3ccccc3-c3ccccc32)C(C)C)CC[C@H]2[C@@H]3C[C@H](C)C4=CC(=O)C=C[C@]4(C)[C@H]3[C@@H](O)C[C@@]21C [Example 4, N-(N-(N-(N-(9H-Fluoren-9-ylmethoxycarbonyl)-L-alanyl)-L-alanyl) -L-prolyl)-L-valine [11β,21-dihydroxy-3,20-dioxo-6α-methyl-17-propionyloxy-pregna-1,4-dien-21-yl] ester] (Fmoc-AAPV-{Methylprednisolone(17-OCOEt)})
Relative Hydrolysis Rate [%] (Leukocyte Elastase): 100% | Edema [% inhibition] (rat ear; [1]): 30% | Infiltration [% inhibition] (rat ear; [1]): 16% | Edema [% inhibition] (rat ear; [2]): 48% | Infiltration [% inhibition] (rat ear; [2]): 42% | Edema [% inhibition] (rat ear; [3]): 78% | Infiltration [% inhibition] (rat ear; [3]): 66% | Relative Hydrolysis Rate [%] (Esterases of Rat Skin): 4%

CCC(=O)O[C@]1(C(=O)COC(=O)[C@@H](NC(=O)[C@@H]2CCCN2C(=O)[C@H](C)NC(=O)[C@H](C)NC(=O)OCc2ccccc2)C(C)C)CC[C@H]2[C@@H]3C[C@H](C)C4=CC(=O)C=C[C@]4(C)[C@H]3[C@@H](O)C[C@@]21C [Example 5, N-(N-(N-(N-(Phenylmethoxycarbonyl)-L-alanyl)-L-alanyl)-L-prolyl) -L-valine [11β21-dihydroxy-3,20-dioxo-6α-methyl-17-propionyloxy-pregna-1,4-dien-21-yl] ester] (Cbz-AAPV-{Methylprednisolone(17-OCOEt)})
Relative Hydrolysis Rate [%] (Leukocyte Elastase): 160-230%

CCC(=O)O[C@]1(C(=O)COC(=O)[C@@H](NC(=O)[C@@H]2CCCN2C(=O)[C@H](C)NC(=O)[C@H](C)NC(=O)CN2C(=O)c3ccccc3C2=O)C(C)C)CC[C@H]2[C@@H]3C[C@H](C)C4=CC(=O)C=C[C@]4(C)[C@H]3[C@@H](O)C[C@@]21C [Example 17, N-(N-(N-(N-(N-(Phthaloyl)-glycyl)-L-alanyl)-L-alanyl)-L-prolyl) -L-valine [11β,21-dihydroxy-3,20-dioxo-6α-methyl-17-propionyloxy-pregna-1,4-dien-21-yl] ester] (Phthalimidoacetyl-AAPV-{Methylprednisolone(17-OCOEt)})
Relative Hydrolysis Rate [%] (Esterases of Rat Skin): 49%

CCC(=O)O[C@]1(C(=O)COC(=O)[C@@H](NC(=O)[C@@H]2CCCN2C(=O)[C@H](C)NC(=O)[C@H](C)NC(=O)C(C)(C)NC(=O)OCC2c3ccccc3-c3ccccc32)C(C)C)CC[C@H]2[C@@H]3C[C@H](C)C4=CC(=O)C=C[C@]4(C)[C@H]3[C@@H](O)C[C@@]21C [Example 18, N-(N-(N-(N-(N-((9H-Fluoren-9-ylmethoxy)carbonyl)-2-amino-2-methyl-propionyl)-L-alanyl)-L-alanyl)-L-prolyl)-L-valine [11β,21-dihydroxy-3,20-dioxo-6α-methyl-17-propionyloxy-pregna-1,4-dien-21-yl] ester] (Fmoc-[Aib]AAPV-{Methylprednisolone(17-OCOEt)})
Relative Hydrolysis Rate [%] (Leukocyte Elastase): 130%

CC(C)[C@H](NC(=O)[C@@H]1CCCN1C(=O)[C@H](C)NC(=O)[C@H](C)NC(=O)OCC1c2ccccc2-c2ccccc21)C(=O)OCC(=O)[C@@]1(O)CC[C@H]2[C@@H]3C[C@H](C)C4=CC(=O)C=C[C@]4(C)[C@H]3[C@@H](O)C[C@@]21C [Example 22] (Fmoc-AAPV-X1)
Relative Hydrolysis Rate [%] (Leukocyte Elastase): 370% | Relative Hydrolysis Rate [%] (Esterases of Rat Skin): 6%

CC(C)[C@H](NC(=O)[C@@H]1CCCN1C(=O)[C@H](C)NC(=O)[C@H](C)NC(=O)OC(C)(C)C)C(=O)OCC(=O)[C@H]1[C@H](C)C[C@H]2[C@@H]3C[C@H](F)C4=CC(=O)C=C[C@]4(C)[C@H]3[C@@H](O)C[C@@]21C [Example 32, N-(N-(N-(N-((1,1-Dimethyl)-ethoxycarbonyl)-L-alanyl)-L-alanyl)-L -prolyl)-L-valine [6α-fluoro-11β,21-dihydroxy-16α-methyl-3,20dioxo-pregna-1,4-dien-21-yl] ester] (Boc-AAPV-X2)
Relative Hydrolysis Rate [%] (Leukocyte Elastase): 380%

CCCCC(=O)O[C@]1(C(=O)COC(=O)[C@@H](NC(=O)[C@@H]2CCCN2C(=O)[C@H](C)NC(=O)[C@H](C)NC(=O)OC(C)(C)C)C(C)C)[C@@H](C)C[C@H]2[C@@H]3CCC4=CC(=O)C=C[C@]4(C)[C@@]3(F)[C@@H](O)C[C@@]21C [Example 38, N-(N-(N-(N-((1,1-Dimethyl)ethoxycarbonyl)-L-alanyl)-L-alanyl)-L -prolyl)-L-valine [9α-fluoro-11β,21-dihydroxy-16β-methyl-3,20-dioxo-17-valeroyloxy-pregna-1,4-dien-21-yl] ester]
Relative Hydrolysis Rate [%] (Esterases of Rat Skin): 0%

CCCCC(=O)O[C@]1(C(=O)COC(=O)[C@@H](NC(=O)[C@@H]2CCCN2C(=O)[C@H](C)NC(=O)[C@H](C)NC(=O)OCC2c3ccccc3-c3ccccc32)C(C)C)[C@@H](C)C[C@H]2[C@@H]3CCC4=CC(=O)C=C[C@]4(C)[C@@]3(F)[C@@H](O)C[C@@]21C [Example 39, N-(N-(N-(N-(9H-Fluoren-9-yl-methoxycarbonyl)-L-alanyl)-L-alanyl) -L-prolyl)-L-valine [9α-fluoro-11β,21-dihydroxy-16β-methyl-3,20-dioxo-17-valeroyloxy-pregna-1,4-dien-21-yl] ester]
Relative Hydrolysis Rate [%] (Leukocyte Elastase): 42% | Relative Hydrolysis Rate [%] (Esterases of Rat Skin): 0%

COC(=O)CCC(=O)N[C@@H](C)C(=O)N[C@@H](C)C(=O)N1CCC[C@H]1C(=O)N[C@H](C(=O)CCl)C(C)C [MeO-succinyl-Ala-Ala-Pro-Val-chloromethylketone, reference compound] (MeOSuc-AAPV-CH2Cl)
Inhibition of the cleavage of the prodrugs (Leukocyte Elastase; addition of the specific elastase inhibitor to granulocyte lysate): 90%

Source: patent publication US5616573A, “Glucocorticoids” (Schering Aktiengesellschaft, priority 1993, dated 1997)
